The values below come from article PMC7409196, “Investigating the Effect of Esterification on Retinal Pigment Epithelial Uptake Using Rhodamine B Derivatives” (Translational Vision Science & Technology, 2020).

Data set [1] has as its system ARPE-19-nic cells. The data set can be described thus: Co-localization with Mito-GFP (confocal and high-resolution live cell imaging). It is filed as cell-based, human. As to conditions: 25 nM, 30 minutes; for cell penetration and association with mitochondria, high-resolution airy scan imaging: live cells. The procedure: ARPE-19-nic cells were seeded at 1.5 × 10^5 cells per well density in 8-well Millicell EZ slides with MEM-Nic + 1% FBS. After 24 hours (60%–70% confluency), cells were transfected with CellLight Mitochondria-GFP using manufacturer's recommended protocol. For co-localization experiments carried out at subconfluent conditions, media containing CellLight Mito-GFP were removed, washed with DPBS and cells were treated with 25 nM dye solutions prepared in MEM-Nic + 1% FBS at 37°C, 5% CO2. After 30 minutes, media containing dye solution was removed and cells were washed three times with DPBS. Cells were mounted with DPBS for confocal laser scanning microscope imaging. An 63× oil lens was used to image cells in green and red channels. For experiments carried out at confluent conditions, transfection was carried out at 60% to 70% confluency and cells were grown to 100% confluency. A 20× lens was used to generate images to compare staining efficiencies.
To analyze RBBE and its association with mitochondria, high-resolution live cell imaging was conducted using a Zeiss LSM880 inverted confocal microscope equipped with a GaAsP detector. All the images were obtained by using a 63× oil objective (30°C oil) in three channels (blue, green, and red) at room temperature. ARPE-19-nic cells were grown in Lab-Tek II chambered no 1.5 German coverslip system for 24 hours before treating with CellLight Mito-GFP overnight followed by a 30-minute treatment of 25 nM RBBE in growth media. After treating the cells with RBBE, cells were washed twice with PBS and nuclei were stained employing a Hoechst stain (1/2000 diluted from a 10 mg/mL stock solution in media) for 10 minutes at room temperature. Subsequently cells were washed twice with PBS and cells were imaged in phenol red free CO2 independent Leibovitz's (1×) media.

The test system of data set [2] is ARPE-19-nic cells. The data set can be described thus: Cellular uptake: intracellular and extracellular fluorescence quantification. The class given is cell-based, human.
Method: Black clear bottomed Costar 96-well plates were pretreated with 0.039 mg/mL collagen I solution prepared in sterilized deionized water (50 µL per well) for 1 hour, aspirated and washed with 100 µL of DPBS. Confluent ARPE-19-nic cells were harvested and seeded at approximately 70,000 cells per well and grown until the cells reached 100% confluency. At the time of confluence (day 0), media were removed from the cells and treated with 100 µL of freshly made dye solutions in MEM-Nic + 1% FBS in amber Eppendorf tubes in dark. […] To determine intracellular and extracellular dye levels, cells were treated with 25 nM dye solutions for 2 hours. Extracellular levels were measured by transferring 75 µL of the media sitting on top of the cells to a new black, clear bottomed 96-well plate. To the transferred media, 25 µL of Qiagen RLT lysis buffer with 0.2% Tween20 were added and fluorescence was measured as mentioned elsewhere in this article. Intracellular amounts were determined by adding 100 µL of Qiagen RLT lysis buffer with 0.2% Tween20 to the cells that were washed thrice with DPBS. Fluorescence measurements were carried as described. For accumulation experiments, freshly prepared 25 nM dye solutions were added to cells multiple times (1×, 2×, or 3×) and incubated for 2 hours after each addition, removing media before each addition. After the incubation period, cells were washed three times with DPBS and fluorescence was measured from a plate reader. For retention experiments, cells were treated with 25 nM dye solutions for 2 hours at 37°C, 5% CO2, and fresh media was added every 24 hours after the removal of the dye solution.
Data set [3] relates to ARPE-19-nic cells. The data set can be described thus: Accumulation experiment with repeated dye additions. It is filed as cell-based, human. As to conditions: 25 nM added 1×, 2× or 3×, 2 hours each. On the procedure: Black clear bottomed Costar 96-well plates were pretreated with 0.039 mg/mL collagen I solution prepared in sterilized deionized water (50 µL per well) for 1 hour, aspirated and washed with 100 µL of DPBS. Confluent ARPE-19-nic cells were harvested and seeded at approximately 70,000 cells per well and grown until the cells reached 100% confluency. At the time of confluence (day 0), media were removed from the cells and treated with 100 µL of freshly made dye solutions in MEM-Nic + 1% FBS in amber Eppendorf tubes in dark. After the appropriate incubation time, cells were washed thrice with DPBS, lysed with Qiagen RLT buffer with 0.2% Tween20, and fluorescence was recorded at λex/ λem = 552 nm/558 nm. […] Extracellular levels were measured by transferring 75 µL of the media sitting on top of the cells to a new black, clear bottomed 96-well plate. To the transferred media, 25 µL of Qiagen RLT lysis buffer with 0.2% Tween20 were added and fluorescence was measured as mentioned elsewhere in this article. Intracellular amounts were determined by adding 100 µL of Qiagen RLT lysis buffer with 0.2% Tween20 to the cells that were washed thrice with DPBS. Fluorescence measurements were carried as described. […] After the incubation period, cells were washed three times with DPBS and fluorescence was measured from a plate reader. […]

Data set [4] deals with isolated mitochondria from ARPE-19-nic cells. The data set can be described thus: Quantification of dye amounts in isolated mitochondria. The class given is cell-based, human. The note with it: 100 nM, 30 minutes; t-test P < 0.0001.
Data set [5] is described as follows: Stability of dyes in media (HPLC). The class given is in vitro ADME. As to conditions: 100 nM in MEM-Nic + 1% FBS, 37°C, HPLC at 0 and 2 hours. On the procedure: Fresh 100 nM RBBE solutions were prepared in MEM-Nic + 1% FBS with 0.2% Tween20. HPLC chromatograms were recorded immediately after making solutions and after incubation at 37°C for 2 hours to determine stability of the ester linkage in media.

For data set [6], the system named is ARPE-19-nic cells. The data set can be described thus: De-esterification in cells (HPLC of cell extracts). It is filed as in vitro ADME, human. As to conditions: confluent cells treated with 100 nM for 30 minutes and 2 hours. The procedure: For cell work, confluent ARPE-19-nic cells were treated with 100 nM dye solutions for 30 minutes and 2 hours at 37°C, 5% CO2 in a 12-well plate. After washing the cells with PBS three times, cells were extracted using cell scrappers with the aid of methanol. The cell suspension in methanol was sonicated in a water bath for 5 minutes and was centrifuged at 16,000 g for 15 minutes. The supernatant was transferred to an HPLC vial and methanol was evaporated under a stream of nitrogen. The sample was resuspended in 40 µL of methanol before injecting into the HPLC system. Twenty microliters of the samples were injected with an autosampler. Separation was conducted by 1.1 mL/min isocratic elution with a methanol (80%) and 10 mM sodium phosphate buffer (pH 5.8, 20%) mobile phase on a 250 × 4.6-mm (5 µm) C18 column (Pinnacle II; Restek, Bellefonte, PA) maintained at 40°C. The samples were monitored at an emission wavelength of 580 nm (λex = 550 nm) using a FLD detector and analyzed with Agilent Chemstation software.

For rhodamine B [RB], the “co-localization with Mito-GFP labelled mitochondria” value in the data set on ARPE-19-nic cells [1] (confocal laser scanning microscopy) is “not detected within the cells”. In addition, the “cell penetration and association with mitochondria, high-resolution airy scan imaging” value in the data set on ARPE-19-nic cells [1] is reported as “did not observe any RB”. Further, the cell permeability result in the data set on ARPE-19-nic cells [2] (25 nM) was “cell impermeable”. Further, the “intracellular versus extracellular location of dye” value in the data set on ARPE-19-nic cells [2] (25 nM, 2 hours, fluorescence) was “primarily located in the extracellular space”. Further, the “cell penetration after 24 hours incubation” value in the data set with ARPE-19-nic cells [2] (24 hours incubation) was “not able to penetrate into the cells”. Moreover, in the data set with ARPE-19-nic cells [3], the “intracellular level after multiple doses (accumulation)” value is “showed no accumulation”.

For `CCCCOC(=O)c1ccccc1-c1c2ccc(=[N+](CC)CC)cc-2oc2cc(N(CC)CC)ccc12` [RBBE, Rhodamine B Butyl Ester], the “fluorescence from isolated mitochondria compared with RB-treated cells” value in data set [4] was “increased fluorescence activity”. In addition, in data set [5], the “stability of the ester in media” value was “stable in media up to 2 hours”. Moreover, the “conversion into the parent form (de-esterification) inside cells” value with ARPE-19-nic cells [6] is on record as “did not convert into its parent form within 2 hours”. Moreover, the “cell penetration and association with mitochondria, high-resolution airy scan imaging” value in the data set with ARPE-19-nic cells [1] is “able to effectively penetrate into the cells and associated with mitochondria”.
